Our source for the inhibition and haemolysis values is PubChem BioAssay AID2061108 (Research group of Professor Matthew Todd, School of …, 2025).

By inhibition is commonly meant the drop in the measured response relative to a control, in per cent.

Experiment in all cases: antibacterial and antifungal growth inhibition panel, profiling panel, Idler compounds, first plate, PMBN-permeabilized strains (AID 2061108)
What all share (set-up): haemolysis: dose or concentration left out as unconfirmed

Experiment [1] deals with A. baumannii ATCC 17978 + PMBN growth inhibition, 100 uM. The settings on record: A. baumannii plus PMBN growth inhibition, 100 µM; stronger effect = higher value.
Experiment [2] has as its system A. baumannii ATCC 17978 growth inhibition, 100 uM. The settings on record: S. aureus ATCC 9144 growth inhibition; measured here: A. baumannii ATCC 17978; at 100 µM; stronger effect = higher value.
Experiment [3] has as its system C. albicans NCPF 3281 growth inhibition, 100 uM. Conditions: S. aureus ATCC 9144 growth inhibition; measured here: C. albicans NCPF 3281; at 100 µM; stronger effect = higher value.
Experiment [4] has as its system E. coli NCTC 12923 + PMBN growth inhibition, 100 uM. The settings on record: S. aureus ATCC 9144 growth inhibition; measured here: E. coli plus PMBN; at 100 µM; stronger effect = higher value.
Experiment [5] has as its system E. coli NCTC 12923 growth inhibition, 100 uM. The settings on record: E. coli NCTC 12923 growth inhibition, 100 µM; stronger effect = higher value.
Experiment [6] has as its system M. abscessus growth inhibition, 10 uM. Conditions: S. aureus ATCC 9144 growth inhibition; measured here: M. abscessus; at 10 µM.
Experiment [7] deals with M. avium growth inhibition, 10 uM. The settings on record: M. avium growth inhibition, 10 µM.
Experiment [8] concerns S. aureus ATCC 9144 growth inhibition, 100 uM. The settings on record: S. aureus ATCC 9144 growth inhibition; at 100 µM; stronger effect = higher value.
The subject of experiment [9] is red blood cell haemolysis. The settings on record: stronger effect = higher value; dose or concentration not given here.

The source made the active and inactive calls. How the calls were made is not given here.

As for `O=C(NCCn1ccc2ccccc21)Nc1c[nH]c2ccccc12`, the inhibition in [1] was 55%; in experiment [2], 1.2%; in [3], -13.8%; in experiment [4], 8.41%; in experiment [5], -5.81%; in experiment [6] it was 0.723%. Moreover, the inhibition in experiment [7] was 1.09%; in experiment [8], 1.75% (inactive). Also, the haemolysis in [9] was 0.223%.

Consider `O=C(O)c1cc(-c2ccco2)on1`, for which the inhibition is 19.4% in [1]; -3.73% in experiment [2]; -23.7% in [3]; 3.29% in [4]; 1.89% in experiment [5]; -0.23% in experiment [6]. The values for the inhibition in [7] and in experiment [8] were -0.19% and 20.4% (inactive), respectively. Also, the haemolysis in experiment [9] was determined as 0.22%.

Consider `Cc1ccc(N2CN(CC(=O)Nc3ccccc3Cl)S(=O)(=O)c3cccnc32)cc1`, for which the inhibition in experiment [1] is 4.43%; in [2] it was -6.75%; in experiment [3] it was -124%; in [4], -25.9%; in experiment [5], -45.3%; in experiment [6], 0.131%. Further, the inhibition is -1.53% in [7] and -17.7% (inactive) in experiment [8]. For the same compound, the haemolysis in experiment [9] worked out at 0.453%.

With `O=c1[nH]c(=O)c2cc(S(=O)(=O)Nc3cc(F)c(N4CCN(c5ccccn5)CC4)c(F)c3)ccc2[nH]1`, the inhibition in experiment [1] is 24%; in experiment [2], 4.58%; in [3] it was -115%; in experiment [4], 9.51%; in [5], 0.946%; in experiment [6] it was -0.0939%. In addition, the inhibition in [7] was 1.7%; in experiment [8] it was 10.2% (inactive). Moreover, the haemolysis in experiment [9] was found to be 0.458%.

Regarding `COc1cc(OC)cc(C2(NC(=O)c3ccc(N4CCOCC4)cc3)COC2)c1`, the inhibition in experiment [1] was 19.4%; in experiment [2], 2.38%; in experiment [3] it was -72%; in [4], 0.123%; in experiment [5], 0.541%; in experiment [6] it was -0.558%. The inhibition in experiment [7] was -0.0617%; in experiment [8] it was 11.7% (inactive). In addition, in experiment [9], the haemolysis is -0.148%.

Consider `N#CC1(c2cccc(-c3cccc4c3CCOC4C(=O)O)c2)CC1` (centres undefined), for which the inhibition in experiment [1] was 20.9%; in experiment [2] it was -4.34%; in [3] it was -60.5%; in experiment [4] it was -11.3%; in experiment [5], -6.62%; in experiment [6], 0.107%. The inhibition in experiment [7] was -1.43%; in [8], -2.28% (inactive). Besides, the haemolysis in experiment [9] is 0.0202%.

Turning to `CCCOc1cc(S(=O)(=O)n2cccn2)ccc1Br`, the inhibition is 18.4% in experiment [1]; -7.35% in experiment [2]; -62.6% in [3]; -8.29% in experiment [4]; -38.1% in [5]; -0.42% in experiment [6]. For the same compound, the inhibition in experiment [7] is -1.53%; in experiment [8] it was -33.2% (inactive). Moreover, in experiment [9], the haemolysis turned out to be 0.858%.

For the compound `O=C(c1ccccc1)c1ccc(NS(=O)(=O)c2cccc(Cl)c2)cc1`, the inhibition was 80.1% in experiment [1]; 15.2% in [2]; -41.2% in experiment [3]; 86.3% in experiment [4]; 4.05% in [5]; -0.368% in [6]. In addition, the inhibition in [7] was 0.0647%; in [8], 64.6%. Also, in experiment [9], the haemolysis came out at 0.625%.

On to `COc1cc2nc(Nc3cc(C)[nH]n3)nc(Nc3cc(C)[nH]n3)c2cc1OC`, for which the inhibition is 19.6% in experiment [1]; 18.8% in [2]; 84.2% in experiment [3]; 49.1% in experiment [4]; 12.7% in experiment [5]; 0.769% in experiment [6]. The inhibition in experiment [7] was 1.15%; in [8], 37.5%. For the same compound, the haemolysis in [9] was 0.208%.

On to `Cc1cc(C)c(S(=O)(=O)N2CCC(C(=O)NCc3cccnc3)CC2)c(C)c1`, for which the inhibition in [1] was 25.7%; in [2], -2.53%; in [3] it was -44.9%; in [4], 5.73%; in experiment [5], -1.08%; in [6], 0.182%. Moreover, the inhibition in experiment [7] was -0.596%; in [8] it was 12.6% (inactive). Further, in experiment [9], the haemolysis is 0.266%.

With `CC1(C)C2CCC1(C)C(OCC(O)CNC1CCCCC1)C2` (centres undefined), the inhibition was 79.1% in [1]; 29.4% in experiment [2]; 100% in experiment [3]; 100% in experiment [4]; 19.9% in experiment [5]; -1.25% in [6]. The inhibition in [7] is -0.797%; in [8], 17%. For the same compound, the haemolysis in experiment [9] came to 0.00104%.

Take `O=c1[nH]c(=O)c2cc(S(=O)(=O)Nc3cc(F)c(N4CCC(N5CCOCC5)CC4)c(F)c3)ccc2[nH]1`: the inhibition in [1] was 19.7%; in experiment [2], 4.34%; in [3], -44.5%; in experiment [4], 1.59%; in experiment [5] it was -6.35%; in [6] it was -0.0703%. Besides, the inhibition was 0.48% in [7] and 14.7% (inactive) in experiment [8]. The haemolysis in [9] came to 0.307%.

`CCOc1ccc(-c2cc(=O)n(CC(=O)N3CCC(Cc4ccccc4)CC3)cn2)cc1`: the inhibition in experiment [1] is 11%; in [2], -13.5%; in experiment [3], -40.2%; in experiment [4] it was 4.32%; in [5], -16.4%; in experiment [6] it was -1.03%. Also, the inhibition in [7] is 0.214%; in [8] it was 5.33% (inactive). The haemolysis in [9] was 2.13%.

`N#Cc1c(N2C[C@@H](CC(N)=O)[C@H](O)C2)nc2ccccc2c1C(F)(F)F`: the inhibition in experiment [1] is 28.3%; in experiment [2], -4.88%; in [3] it was -24.4%; in experiment [4], 11.6%; in experiment [5] it was 0.811%; in experiment [6], -0.687%. The inhibition in experiment [7] was 0.858%; in [8], 9.67% (inactive). Moreover, the haemolysis in experiment [9] came out at 0.173%.

As for `COc1ccc2c(c1)nc(-c1ccc[nH]1)c1[nH]ccc12`, the inhibition in [1] turned out to be 101%; in experiment [2] it was 34.2%; in experiment [3], 101%; in experiment [4] it was 100%; in experiment [5], 43.8%; in experiment [6], 0.154%. The inhibition in [7] was 1.82%; in [8] it was 102%. Moreover, in experiment [9], the haemolysis was determined as 0.0477%.

With `CC(C)c1conc1CNc1ccnc(S(=O)(=O)F)c1`, the inhibition in experiment [1] is 13%; in experiment [2] it was -0.119%; in experiment [3] it was 11.6%; in experiment [4], -0.37%; in [5], -1.22%; in experiment [6], -1.22%. In addition, the inhibition is 0.196% in [7] and 16.8% (inactive) in experiment [8]. Further, the haemolysis in experiment [9] was -0.292%.
